This is an account of results in patent publication US8476289B2, “Aza-bicyclohexyl substituted indolyl alkyl amino derivatives as novel inhibitors of histone deacetylace” (Janssen Pharmaceutica NV, priority 2008, dated 2013).

Molecules are shown by their SMILES. Counter-ions that a name gives are not always drawn.

The subject of one data set is HCT116 cells. Briefly: Antiproliferative activity on HCT116 cells (Alamar Blue assay, example C.2). Format: cell-based. As to conditions: HCT-116, 96 h, Human colon carcinoma HCT116 cells, 4-day incubation, read-out: Cellular activity pIC50 C.2 (converted). The method, then:
Cellular activity of the compounds of formula (I) was determined on HCT116 tumour cells using a colorimetric assay for cell toxicity or survival (Mosmann Tim, Journal of Immunological Methods 65: 55-63, 1983) (see example C.2).
Human colon carcinoma HCT116 cells obtained from the ATCC were cultured in McCoy's 5A medium supplemented with 2 mM L-Glutamine, 50 μg/ml gentamicin and 10% heat inactivated fetal calf serum.
Reagents Used in the Alamar Blue Assay
Resazurin was purchased from Aldrich (Prod. No. 199303). Potassium ferrocyanide, potassium ferricyanide, KH2PO4 and K2HPO4 were purchased from Sigma (Prod. Nos. P9387, P8131, P5655 and P8281, respectively).
Potassium Phosphate Buffer 0.1 M (PPB) was made as follows: 2.72 gram KH2PO4 and 13.86 gram K2HPO4 were dissolved in 500 ml milli-Q H2O, the pH was adjusted to pH 7.4 and the volume was brought to 1 liter with milli-Q H2O; the buffer was filter sterilised and stored at room temperature. Resazurin stock solution (PPB-A) was prepared fresh by dissolving 45 mg resazurin in 15 ml PBS. 30 mM potassium ferricyanide (PPB-B) was prepared by dissolving 0.987 gram potassium ferricyanide in 100 ml PPB. 30 mM potassium ferrocyanide (PPB-C) was prepared by dissolving 1.266 gram potassium ferrocyanide in 100 ml PPB.
Mixture of PPB-A, PPB-B and PPB-C was prepared by mixing equal volumes of the respective solutions. Resazurin work solution (herein termed “Alamar Blue” solution) was prepared by diluting said mixture 20× (vol/vol) in PPB and filter sterilising; the Alamar Blue solution could be kept at 4° C. for a maximum of 2 weeks.
Procedure of the Alamar Blue Assay
For experiments in 384 wells plates the cells were seeded at a density of 4.5×10^3 cells/ml in Falcon 384-well culture plates (Life Technologies, Merelbeke, Belgium), black with clear bottom, in 45 μl culture medium. Cells were allowed to adhere to plastic for 24 hr. The tested compound was pre-diluted (1/50 in culture medium) and 5 μl pre-diluted compound was added to the wells. Following 4-day incubation, 10 μl of the Alamar Blue solution was added to each well and the cells were further incubated for 4 hrs (HCT116) or 24 hrs (PC-3) at 37° C. The fluorescence intensity was measured for each well on a Fluorescence plate reader (Fluorskan, Labsystems, 540 nm excitation and 590 nm emission)
The antiproliferative activity was calculated as percentage of remaining viable cells in treated versus control (untreated cells) conditions. Within an experiment, the result for each experimental condition is the mean of 3 replicate wells. When appropriate, the experiments were repeated to establish full concentration-response curves. When appropriate, IC50-values (concentration of the drug, needed to reduce cell growth to 50% of the control) were computed using probit analysis for graded data (Finney, D. J., Probit Analyses, 2nd Ed. Chapter 10, Graded Responses, Cambridge University Press, Cambridge 1962). Herein the effects of test compounds are expressed as pIC50 (the negative log value of the IC50-value) (see Table F-2).
For orientation: Alamar Blue is a resazurin reagent that responds to reducing activity.

Data set [1] deals with histone deacetylase (HeLa nuclear extracts). Briefly: In vitro assay for inhibition of histone deacetylase (example C.1.c, HeLa nuclear extracts). The data set is classed as biochemical. Conditions: HeLa nuclear extract, 45 min at 37° C.; work performed by Reaction Biology Corp. As for the experimental part:
The in vitro assay for inhibition of histone deacetylase (see example C.1) measures the inhibition of HDAC enzymatic activity obtained with the compounds of formula (I).
HeLa nuclear extracts (prepared by high salt extraction of HeLa nuclei, J. D. Dignam et al., S. M. Abmayr et al) were incubated with 9 mg/ml in 0.1M KCl, 20 mM HEPES/NaOH, pH 7.9, 20% (v/v) glycerol, 0.2 mM EDTA, 0.5 mM DTT, 0.5 mM PMSF of enzyme. After 45 min, at 37° C. the deacetylation reaction was terminated. The developer reaction (also at 37° C.) was read in a time dependent manner for an hour. For each experiment, controls (containing HeLa nuclear extract and DMSO without compound) and samples (containing compound dissolved in DMSO and HeLa nuclear extract) were run in parallel. The compounds were tested at concentrations between 10^−5M and 10^−12M. The control sample represented 100% of substrate deactylation. For each sample the activity was expressed as a percentage of the mean value of the controls. Appropriate IC50-values (concentration of the drug, needed to reduce the amount of metabolites to 50% of the control) were computed using the Prism program. Herein the effects of test compounds are expressed as pIC50 (the negative log value of the IC50-value) (see Table F-2). Work was performed by Reaction Biology Corp. (Malvern, Pa., USA).

With `Cn1cc(CNCC2C3CN(c4ncc(C(=O)NO)cn4)CC23)c2cc(F)ccc21` (centres unmarked) [Compound 4], the IC50 in the data set on HCT116 cells is 81.3 nM.

Consider `Cn1cc(CNC2C3CN(c4ncc(C(=O)NO)cn4)CC32)c2ccccc21` (centres unmarked) [Compound 2], for which the “Enzymatic activity pIC50 C.1.c.” value in data set [1] came out at 8.62. For the same molecule, in the data set with HCT116 cells, the IC50 was 661 nM.

In the case of `Cn1cc(CNCC2C3CN(c4ncc(C(=O)NO)cn4)CC23)c2cc(C#N)ccc21` (centres unmarked) [Compound 5], the IC50 with HCT116 cells is 398 nM.

For `Cn1cc(CNCC2C3CN(c4ncc(C(=O)NO)cn4)CC23)c2cc(Cl)ccc21` (centres unmarked) [Compound 3], the IC50 in the data set with HCT116 cells was 75.9 nM.

Regarding `Cn1cc(CNCC2C3CN(c4ncc(C(=O)NO)cn4)CC23)c2ccccc21` (centres unmarked) [Compound 1], in data set [1], the “Enzymatic activity pIC50 C.1.c.” value turned out to be 8.39. In addition, the IC50 with HCT116 cells was 89.1 nM.

Consider `CCCn1cc(CNCC2C3CN(c4ncc(C(=O)NO)cn4)CC23)c2cc(Cl)ccc21` (centres unmarked) [Compound 6], for which the IC50 with HCT116 cells was 35.5 nM.

In the case of `CCCn1cc(CNCC2C3CN(c4ncc(C(=O)NO)cn4)CC23)c2cc(F)ccc21` (centres unmarked) [Compound 7], the IC50 in the data set with HCT116 cells was 25.7 nM.

By melting point is commonly meant the temperature, or range, at which the solid turns liquid. Turning to `Cn1cc(CNC2C3CN(c4ncc(C(=O)NO)cn4)CC32)c2ccccc21` (centres unmarked) (as salt: trifluoroacetate) [Compound 2], the melting point amounted to 157 °C.

In turn, `Cn1cc(CNCC2C3CN(c4ncc(C(=O)NO)cn4)CC23)c2ccccc21` (centres unmarked) (as salt: trifluoroacetate) [Compound 1] gave a melting point of 150 °C.
